IC50 data for six compounds are collected here from US11091478B2 (Fochon Pharmaceuticals, Ltd., priority 2017, dated 2021).

The test system of one experiment is RS4;11 cells. Description: Cell proliferation assay (MTS), RS4;11 cells, 72 h. It counts as cell-based. Particulars: Homo sapiens, RS4-11, 72 h. In short, it runs like this:
(§1)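 RS4;11 and DOHH2 cells at 5000 cells/well in RPMI-1640 with 10% FBS were treated with compound at 1.5–10000 nM final, nine points, at 37 °C, 5% CO2. Exposure was 72 h for RS4;11 and 120 h for DOHH2. MTS was added for 2 h, absorbance read at 490/650 nm, and IC50 calculated.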

Another experiment has as its system DOHH2 cells. Description: Cell proliferation assay (MTS), DOHH2 cells, 120 h. It counts as cell-based. Particulars: Homo sapiens, DOHH-2, 120 h. In a few lines: as §1

As a reminder, the IC50 is the midpoint of a concentration-inhibition curve. Lower therefore signals inhibition by little substance. Consider `COc1ccc([C@H]2COc3cc(S(=O)(=O)NC(=O)c4ccc(N5CCN(CC6=C(c7ccc(Cl)cc7)CC(C)(C)CC6)CC5)cc4Oc4cnc5[nH]ccc5c4)cc([N+](=O)[O-])c3N2)cc1` [Example 2-176, (S)-2-((1H-pyrrolo[2,3-b]pyridin-5-yl)oxy)-4-(4-((4′-chloro-5,5-dimethyl-3,4,5,6-tetra-hydro-[1,1′-biphenyl]-2-yl)methyl)piperazin-1-yl)-N-((3-(4-methoxyphenyl)-5-nitro-3,4-dihydro-2H-benzo[b][1,4]oxazin-7-yl)sul-fonyl)benzamide], for which the IC50 worked out at 64 nM in the experiment with RS4;11 cells and 547 nM in the experiment with DOHH2 cells.

For the compound `CC1(C)CCC(CN2CCN(c3ccc(C(=O)NS(=O)(=O)c4cc5c(c([N+](=O)[O-])c4)N[C@H](c4ccccn4)CO5)c(Oc4cnc5[nH]ccc5c4)c3)CC2)=C(c2ccc(Cl)cc2)C1` [Example 2-177, (R)-2-((1H-pyrrolo[2,3-b]pyridin-5-yl)oxy)-4-(4-((4′-chloro-5,5-dimethyl-3,4,5,6-tetra-hydro-[1,1′-biphenyl]-2-yl)methyl)piperazin-1-yl)-N-((5-nitro-3-(pyridin-2-yl)-3,4-di-hydro-2H-benzo[b][1,4]oxazin-7-yl)sulfonyl) benzamide], the IC50 in the experiment on RS4;11 cells was determined as 13 nM; with DOHH2 cells, 119 nM.

For the compound `COc1ccc([C@@H]2COc3cc(S(=O)(=O)NC(=O)c4ccc(N5CCN(CC6=C(c7ccc(Cl)cc7)CC(C)(C)CC6)CC5)cc4Oc4cnc5[nH]ccc5c4)cc([N+](=O)[O-])c3N2)nc1` [Example 2-179, (R)-2-((1H-pyrrolo[2,3-b]pyridin-5-yl)oxy)-4-(4-((4′-chloro-5,5-dimethyl-3,4,5,6-tetra-hydro-[1,1′-biphenyl]-2-yl)methyl)pieprazin-1-yl)-N-((3-(5-methoxypyridin-2-yl)-5-ni-tro-3,4-dihydro-2H-benzo[b][1,4]oxazin-7-yl)sulfonyl)benzamide], the IC50 in the experiment with RS4;11 cells came to 18 nM; with DOHH2 cells, 380 nM.

With `CC1(C)CCC(CN2CCN(c3ccc(C(=O)NS(=O)(=O)c4cc5c(c([N+](=O)[O-])c4)NC(CC4CCOCC4)CO5)c(Oc4cnc5[nH]ccc5c4)c3)CC2)=C(c2ccc(Cl)cc2)C1` (stereo not drawn) [Example 2-180, 2-((1H-pyrrolo[2,3-b]pyridin-5-yl)oxy)-4-(4-((4′-chloro-5,5-dimethyl-3,4,5,6-tetrahydro-[1,1′-biphenyl]-2-yl)methyl)piperazin-1-yl)-N-((5-nitro-3-((tetrahydro-2H-pyran-4-yl)methyl)-3,4-dihydro-2H-benzo[b][1,4]oxazin-7-yl)sulfonyl)benzamide], the IC50 in the experiment with RS4;11 cells came out at 8 nM; with DOHH2 cells, 15 nM.

Turning to `CC1(C)CCC(CN2CCN(c3ccc(C(=O)NS(=O)(=O)c4cc5c(c([N+](=O)[O-])c4)N[C@H](CC4CCOCC4)CO5)c(Oc4cnc5[nH]ccc5c4)c3)CC2)=C(c2ccc(Cl)cc2)C1` [Example 2-181, (R)-2-((1H-pyrrolo[2,3-b]pyridin-5-yl)oxy)-4-(4-((4′-chloro-5,5-dimethyl-3,4,5,6-tetra-hydro-[1,1′-biphenyl]-2-yl)methyl)piperazin-1-yl)-N-((5-nitro-3-((tetrahydro-2H-pyran-4-yl)methyl)-3,4-dihydro-2H-benzo[b] [1,4]oxazin-7-yl)sulfonyl)benzamide], the figures for the half-maximal inhibitory concentration (IC50) in the experiment on RS4;11 cells and in the experiment with DOHH2 cells were 45 nM and 84 nM, respectively.

In the case of `CC1(C)CCC(CN2CCN(c3ccc(C(=O)NS(=O)(=O)c4cc5c(c([N+](=O)[O-])c4)N[C@@H](CC4CCOCC4)CO5)c(Oc4cnc5[nH]ccc5c4)c3)CC2)=C(c2ccc(Cl)cc2)C1` [Example 2-182, (S)-2-((1H-pyrrolo[2,3-b]pyridin-5-yl)oxy)-4-(4-((4′-chloro-5,5-dimethyl-3,4,5,6-tetra-hydro-[1,1′-biphenyl]-2-yl)methyl)piperazin-1-yl)-N-((5-nitro-3-((tetrahydro-2H-pyran-4-yl)methyl)-3,4-dihydro-2H-benzo[b] [1,4]oxazin-7-yl)sulfonyl)benzamide], the IC50 came to 3 nM in the experiment on RS4;11 cells and 16 nM in the experiment with DOHH2 cells.
